Assay results taken from patent US20240148821A1, “PHARMACEUTICAL USE OF CYCLIC PEPTIDE COMPOUND” (CHUGAI SEIYAKU KABUSHIKI KAISHA, priority 2021, published 2024).
Numbered stars: 1 amine (or outer) side, 2 acyl side, 3 side chain; on linkers, the order of the positions; unused ones are H or OH. Bridge positions count the residues as written; N and C are the ends. Square brackets hold non-standard residues; d marks the D form. Peptide text beside a SMILES is read from it. * marks the point of attachment. hPhe(3-Cl-4-CF3) = N[C@@H](CCc1ccc(C(F)(F)F)c(Cl)c1)C(=O)O; hPhe(3-F,4-CF3) = N[C@@H](CCc1ccc(C(F)(F)F)c(F)c1)C(=O)O; NEtPhe(4-CF3) = CCN[C@@H](Cc1ccc(C(F)(F)F)cc1)C(=O)O; NMePhe(4-CF3) = CN[C@@H](Cc1ccc(C(F)(F)F)cc1)C(=O)O; hPhe(4-CF3) = N[C@@H](CCc1ccc(C(F)(F)F)cc1)C(=O)O; NMePhe(3,4-F2) = CN[C@@H](Cc1ccc(F)c(F)c1)C(=O)O; NMePhe(3-Cl) = CN[C@@H](Cc1cccc(Cl)c1)C(=O)O; NMePhe(4-Cl) = CN[C@@H](Cc1ccc(Cl)cc1)C(=O)O; NMedβ3hAla = C[C@H](CC(=O)[*:2])N(C)[*:1]; NMeGly(cPent) = CN[C@H](C(=O)O)C1CCCC1; Pro(4,4-F2) = O=C(O)[C@@H]1CC(F)(F)CN1; NMeCha = CN[C@@H](CC1CCCCC1)C(=O)O; Hyp = O=C(O)[C@@H]1C[C@@H](O)CN1; NMeChg = CN[C@H](C(=O)O)C1CCCCC1; NMeF = CN[C@@H](Cc1ccccc1)C(=O)O; NMeI = CC[C@H](C)[C@H](NC)C(=O)O; NMeD = CN[C@@H](CC(=O)O)C(=O)O; NMeL = CN[C@@H](CC(C)C)C(=O)O; NMeV = CN[C@H](C(=O)O)C(C)C; d(β3hA) = C[C@@H](N)CC(=O)O; NMeA = CN[C@@H](C)C(=O)O; NMeAib = CNC(C)(C)C(=O)O; Piperidide = C1CCN(*)CC1; Pyrrolidide = C1CCN(*)C1; dNMeA = CN[C@H](C)C(=O)O; Ac5c = NC1(C(=O)O)CCCC1; Aze = O=C(O)[C@@H]1CCN1; Ac4c = NC1(C(=O)O)CCC1; Sar = CNCC(=O)O

These compounds were tested against protein-protein interaction between Kras and SOS1 (biotin-tagged human Kras loaded with GDP, His-tagged human SOS1) (Homo sapiens (Human), UniProt P01116, G12D) (assay: Protein-protein interaction inhibition between Kras and SOS1 (KrasG12D-SOS PPI) using AlphaScreen). Conditions: AlphaScreen; biotin-tagged human Kras loaded with GDP, His-tagged human SOS1; read-out: KRAS G12D-SOS PPI IC50.
Assay type: biochemical

In order of falling IC50:
1. CC[C@H](C)[C@@H]1NC(=O)[C@H](CC(C)C)N(C)C(=O)C[C@@H](C)N(C)C(=O)[C@H](CC(C)C)NC(=O)C(C)(C)N(C)C(=O)[C@H](CC(C)C)NC(=O)[C@H](CCc2ccc(C(F)(F)F)cc2)NC(=O)CN(C)C(=O)[C@H](Cc2ccc(Cl)cc2)N(C)C(=O)CN(C)C(=O)CN(C)C1=O [Compound 315] (cyclo(I[Sar][Sar][NMePhe(4-Cl)][Sar][hPhe(4-CF3)]L[NMeAib]L[NMedβ3hAla][NMeL]))  0.12 µM
2. CC[C@H](C)[C@@H]1NC(=O)[C@H](C)N(C)C(=O)C[C@@H](C)NC(=O)[C@H](C2CCCC2)N(C)C(=O)C2(CCCC2)NC(=O)[C@@H]2CCCN2C(=O)[C@H](CCc2ccc(C(F)(F)F)c(Cl)c2)NC(=O)[C@@H](C)N(C)C(=O)[C@H](Cc2ccc(F)c(F)c2)N(C)C(=O)[C@@H]2CCN2C(=O)[C@H](C)N(C)C1=O [Compound 310] (cyclo([Ac5c][NMeGly(cPent)][d(β3hA)][NMeA]I[NMeA][Aze][NMePhe(3,4-F2)][dNMeA][hPhe(3-Cl-4-CF3)]P))  0.096 µM
3. CC[C@H](C)[C@@H]1NC(=O)[C@H](C)N(C)C(=O)C[C@@H](C(=O)N2CCCCC2)N(C)C(=O)[C@H](C(C)C)N(C)C(=O)C2(CCCC2)NC(=O)[C@H](Cc2cccc(Cl)c2)N(C)C(=O)[C@H](CCc2ccc(C(F)(F)F)c(Cl)c2)NC(=O)CN(C)C(=O)[C@H](CC2CCCCC2)N(C)C(=O)CN(C)C(=O)CN(C)C1=O [Compound 282] ([NMeA]I[Sar][Sar][NMeCha][Sar][hPhe(3-Cl-4-CF3)][NMePhe(3-Cl)][Ac5c][NMeV][NMeD]-Piperidide; lactam N-11)  0.094 µM
4. CC[C@H](C)[C@@H]1NC(=O)[C@H](C)N(C)C(=O)C[C@@H](C)NC(=O)[C@H](CC(C)C)N(C)C(=O)[C@H](Cc2ccccc2)N(C)C(=O)[C@H](CC(C)C)NC(=O)[C@H](CCc2ccc(C(F)(F)F)cc2)NC(=O)CN(C)C(=O)[C@H](Cc2ccc(Cl)cc2)N(C)C(=O)CN(C)C(=O)CN(C)C1=O [Compound 271] (cyclo(I[Sar][Sar][NMePhe(4-Cl)][Sar][hPhe(4-CF3)]L[NMeF][NMeL][d(β3hA)][NMeA]))  0.065 µM
5. CC[C@H](C)[C@@H]1NC(=O)[C@H](C)N(C)C(=O)C[C@@H](C)NC(=O)[C@H](C2CCCCC2)N(C)C(=O)C(C)(C)N(C)C(=O)[C@@H]2CCCN2C(=O)[C@H](CCc2ccc(C(F)(F)F)c(Cl)c2)NC(=O)CN(C)C(=O)[C@H](CC2CCCCC2)N(C)C(=O)[C@@H]2CCN2C(=O)[C@H](C)N(C)C1=O [Compound 291] (cyclo([Aze][NMeCha][Sar][hPhe(3-Cl-4-CF3)]P[NMeAib][NMeChg][d(β3hA)][NMeA]I[NMeA]))  0.055 µM
6. CCO[C@@H]1C[C@H]2C(=O)NC3(CCC3)C(=O)N(C)[C@@H](C3CCCCC3)C(=O)N(C)[C@H](C)CC(=O)N(C)[C@@H](CC(C)C)C(=O)N[C@@H]([C@@H](C)CC)C(=O)N(C)[C@@H](C)C(=O)N3CC[C@H]3C(=O)N(CC)[C@@H](Cc3ccc(C(F)(F)F)cc3)C(=O)N(C)CC(=O)N[C@@H](CCc3ccc(C(F)(F)F)c(Cl)c3)C(=O)N2C1 [Compound 296] (cyclo([Ac4c][NMeChg][NMedβ3hAla][NMeL]I[NMeA][Aze][NEtPhe(4-CF3)][Sar][hPhe(3-Cl-4-CF3)][Hyp](Et)))  0.055 µM
7. CCO[C@@H]1C[C@H]2C(=O)N(C)[C@@H](Cc3ccccc3)C(=O)N(C)[C@@H](CC(C)C)C(=O)N[C@H](C)CC(=O)N(C)[C@@H](C)C(=O)N[C@@H]([C@@H](C)CC)C(=O)N(C)CC(=O)N(C)CC(=O)N(C)[C@@H](Cc3ccc(Cl)cc3)C(=O)N(C)CC(=O)N[C@@H](CCc3ccc(C(F)(F)F)cc3)C(=O)N2C1 [Compound 322] (cyclo([Hyp](Et)[NMeF][NMeL][d(β3hA)][NMeA]I[Sar][Sar][NMePhe(4-Cl)][Sar][hPhe(4-CF3)]))  0.031 µM
8. CC[C@H](C)[C@@H]1NC(=O)[C@H](CC(C)C)N(C)C(=O)C[C@@H](C)N(C)C(=O)[C@H](C2CCCCC2)N(C)C(=O)C2(CCCC2)NC(=O)[C@@H]2CC(F)(F)CN2C(=O)[C@H](CCc2ccc(C(F)(F)F)c(Cl)c2)NC(=O)CN(C)C(=O)[C@H](Cc2ccc(C(F)(F)F)cc2)N(C)C(=O)[C@@H]2CCN2C(=O)[C@H](C)N(C)C1=O [Compound 319] (cyclo([Ac5c][NMeChg][NMedβ3hAla][NMeL]I[NMeA][Aze][NMePhe(4-CF3)][Sar][hPhe(3-Cl-4-CF3)][Pro(4,4-F2)]))  0.0082 µM
9. CC[C@H](C)[C@@H]1NC(=O)[C@H](CC(C)C)N(C)C(=O)C[C@@H](C(=O)N2CCCC2)N(C)C(=O)[C@H]([C@@H](C)CC)N(C)C(=O)C2(CCCC2)NC(=O)[C@@H]2CCCN2C(=O)[C@H](CCc2ccc(C(F)(F)F)c(F)c2)NC(=O)CN(C)C(=O)[C@H](C2CCCC2)N(C)C(=O)[C@@H]2CCN2C(=O)[C@H](C)N(C)C1=O [Compound 313] ([NMeL]I[NMeA][Aze][NMeGly(cPent)][Sar][hPhe(3-F,4-CF3)]P[Ac5c][NMeI][NMeD]-Pyrrolidide; lactam N-11)  0.0042 µM
10. CC[C@H](C)[C@@H]1NC(=O)[C@H](CC(C)C)N(C)C(=O)C[C@@H](C(=O)N2CCCCC2)N(C)C(=O)[C@H](C2CCCCC2)N(C)C(=O)C2(CCCC2)NC(=O)[C@H](C)N(C)C(=O)[C@H](CCc2ccc(C(F)(F)F)c(Cl)c2)NC(=O)CN(C)C(=O)[C@H](CC2CCCCC2)N(C)C(=O)CN(C)C(=O)CN(C)C1=O [Compound 294] ([NMeL]I[Sar][Sar][NMeCha][Sar][hPhe(3-Cl-4-CF3)][NMeA][Ac5c][NMeChg][NMeD]-Piperidide; lactam N-11)  0.0014 µM
